Measurements published in the supplement of paper PMC10331698.
± gives the standard deviation of the averaged measurements.

How the values were obtained:
Assay in all cases: level (log10 ratio to DMSO vehicle control); higher = higher biomarker level / cell amount than vehicle control
Nonafluoropentanamide = compound: NC(=O)C(F)(F)C(F)(F)C(F)(F)C(F)(F)F [Nonafluoropentanamide]; conditions: in DMSO
Description: (§1)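 BioMAP Diversity Plus panel of 12 human primary cell co-culture systems (3C, 4H, LPS, SAg, BT, BF4T, BE3C, CASM3C, HDF3CGF, KF3CT, MyoF, Mphg). Compounds were added 1 h before stimulation and left for 24 h (MyoF 48 h; BT 72 h for soluble read-outs or 6 d for IgG). Biomarkers were read by ELISA, cytotoxicity by SRB, PBMC viability and proliferation by Alamar Blue. Each well value was divided by the mean of 8 DMSO control wells on the same plate and log10 transformed; duplicate blinded samples were tested at 4 concentrations.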

[1] = compound: NS(=O)(=O)C(F)(F)C(F)(F)C(F)(F)C(F)(F)C(F)(F)C(F)(F)F [Perfluorohexanesulfonamide]; conditions: in DMSO
Description: as §1

[2] = compound: O=S(=O)(F)C(F)(F)C(F)(F)C(F)(F)C(F)(F)C(F)(F)C(F)(F)C(F)(F)C(F)(F)F [Perfluorooctanesulfonyl fluoride]; conditions: in DMSO
Description: as §1

[3] = compound: O=C(O)C=CC(F)(C(F)(F)F)C(F)(F)F [3-(Perfluoroisopropyl)-2-propenoic acid]; conditions: in DMSO
Description: as §1

[4] = compound: NC(=O)C(F)(F)C(F)(F)C(F)(F)C(F)F; conditions: in DMSO
Description: as §1

[5] = compound: O=S(=O)(O)C(F)(F)C(F)(F)C(F)(F)C(F)(F)C(F)(F)C(F)(F)C(F)(F)C(F)(F)C(F)(F)C(F)(F)F [Sodium perfluorodecanesulfonate]; conditions: in DMSO
Description: as §1

Hexafluoroamylene glycol = compound: OCC(F)(F)C(F)(F)C(F)(F)CO [Hexafluoroamylene glycol]; conditions: in DMSO
Description: as §1

[6] = compound: FC(F)(F)C(F)(F)C(F)(F)C(F)(F)C(F)(F)C(F)(F)C(F)(F)I [1-Iodopentadecafluoroheptane]; conditions: in DMSO
Description: as §1

[7] = compound: O=C(O)C(F)(F)C(F)(F)C(F)(F)C(F)(F)C(F)(F)C(F)(F)C(F)(F)C(F)(F)C(F)(F)C(F)F [11-H-Perfluoroundecanoic acid]; conditions: in DMSO
Description: as §1

[8] = compound: FC(F)(F)C(F)(F)C(F)(F)CC1CO1 [1H,1H-Heptafluorobutyl epoxide]; conditions: in DMSO
Description: as §1

[9] = compound: COC(=O)C(F)(F)C(F)(F)OC(F)(C(F)(F)F)C(F)(F)OC(F)=C(F)F [Methyl perfluoro(3-(1-ethenyloxypropan-2-yloxy)propanoate)]; conditions: in DMSO
Description: as §1

[10] = compound: O=S(=O)(O)CCC(F)(F)C(F)(F)C(F)(F)C(F)(F)C(F)(F)C(F)(F)F [6:2 Fluorotelomer sulfonic acid]; conditions: in DMSO
Description: as §1

[11] = compound: FC(F)(F)C(F)(F)C(F)(F)C(F)(F)C(F)(F)C(F)(F)CC1CO1 [3-(Perfluorohexyl)-1,2-epoxypropane]; conditions: in DMSO
Description: as §1

[12] = compound: O=S(=O)(Cl)C(F)(F)C(F)(F)C(F)(F)C(F)(F)C(F)(F)C(F)(F)C(F)(F)C(F)(F)F [Perfluoro-1-octanesulfonyl chloride]; conditions: in DMSO
Description: as §1

[13] = compound: C=C(C)C(=O)OCCC(F)(F)C(F)(F)C(F)(F)C(F)(F)C(F)(F)C(F)(F)F [6:2 Fluorotelomer methacrylate]; conditions: in DMSO
Description: as §1

Heptafluorobutyl iodide = compound: FC(F)(F)C(F)(F)C(F)(F)CI [Heptafluorobutyl iodide]; conditions: in DMSO
Description: as §1

[14] = compound: C=CC(=O)OCC(F)(F)C(F)(F)C(F)(F)COC(=O)C=C [1H,1H,5H,5H-Perfluoro-1,5-pentanediol diacrylate]; conditions: 6700 nM; in DMSO
Description: as §1

Octafluoroadipamide = compound: NC(=O)C(F)(F)C(F)(F)C(F)(F)C(F)(F)C(N)=O [Octafluoroadipamide]; conditions: in DMSO
Description: as §1

[15] = compound: FC(F)(F)C(F)(F)CNCC(F)(F)C(F)(F)F [Bis(1H,1H-perfluoropropyl)amine]; conditions: in DMSO
Description: as §1

In the case of KF3CT:PAI-I, the “level (log10)” value (Nonafluoropentanamide; 6700 nM) is reported as -0.042 ± 0.0099, the “level (log10)” value (Nonafluoropentanamide; 20000 nM) is reported as -0.0205 ± 0.036 and the “level (log10)” value (Nonafluoropentanamide; 60000 nM) is reported as -0.0375 ± 0.00071. For the same test system, the “level (log10)” value ([1]; 6700 nM) was 0.0045 ± 0.016, the “level (log10)” value ([1]; 20000 nM) was 0.0035 ± 0.021 and the “level (log10)” value ([1]; 60000 nM) was -0.0285 ± 0.022. For the same test system, the “level (log10)” value ([2]; 6700 nM) was -0.0005 ± 0.018, the “level (log10)” value ([2]; 20000 nM) was -0.008 ± 0.0057 and the “level (log10)” value ([2]; 60000 nM) was 0.0025 ± 0.012. The “level (log10)” value ([3]; 6700 nM) was 0.0045 ± 0.0092, the “level (log10)” value ([3]; 20000 nM) was 0.023 ± 0.0085 and the “level (log10)” value ([3]; 60000 nM) was 0.0165 ± 0.0021. For the same test system, the “level (log10)” value ([4]; 6700 nM) was -0.005 ± 0.0042, the “level (log10)” value ([4]; 20000 nM) was -0.0085 ± 0.0064 and the “level (log10)” value ([4]; 60000 nM) was -0.007 ± 0.02. For the same test system, the “level (log10)” value ([5]; 1500 nM) was -0.0085 ± 0.046, the “level (log10)” value ([5]; 4400 nM) was -0.021 ± 0.013 and the “level (log10)” value ([5]; 13000 nM) was -0.0415 ± 0.0035. The “level (log10)” value ([5]; 40000 nM) was -0.0715 ± 0.028, the “level (log10)” value (Hexafluoroamylene glycol; 6700 nM) was 0.002 ± 0.016 and the “level (log10)” value (Hexafluoroamylene glycol; 20000 nM) was -0.0055 ± 0.005. For the same test system, the “level (log10)” value (Hexafluoroamylene glycol; 60000 nM) was 0.013, the “level (log10)” value ([6]; 6700 nM) was -0.0055 ± 0.04 and the “level (log10)” value ([6]; 20000 nM) was -0.0275 ± 0.028. For the same test system, the “level (log10)” value ([7]; 6700 nM) was -0.0025 ± 0.03, the “level (log10)” value ([7]; 20000 nM) was -0.12 ± 0.044 and the “level (log10)” value ([8]; 6700 nM) was -0.0145 ± 0.00071. The “level (log10)” value ([8]; 20000 nM) was -0.0115 ± 0.018, the “level (log10)” value ([8]; 60000 nM) was -0.014 ± 0.0085 and the “level (log10)” value ([9]; 6700 nM) was 0.0045 ± 0.019. The “level (log10)” value ([9]; 20000 nM) was -0.0045 ± 0.012, the “level (log10)” value ([10]; 6700 nM) was 0.0025 ± 0.0021 and the “level (log10)” value ([10]; 20000 nM) was -0.012 ± 0.018. For the same test system, the “level (log10)” value ([10]; 60000 nM) was -0.0135 ± 0.0092, the “level (log10)” value ([11]; 6700 nM) was 0.0145 ± 0.032 and the “level (log10)” value ([11]; 20000 nM) was 0.019 ± 0.0014. The “level (log10)” value ([11]; 60000 nM) was 0.0195 ± 0.0021, the “level (log10)” value ([12]; 6700 nM) was -0.036 ± 0.014 and the “level (log10)” value ([12]; 20000 nM) was -0.116 ± 0.0057. For the same test system, the “level (log10)” value ([12]; 60000 nM) was -0.2505 ± 0.0021, the “level (log10)” value ([13]; 6700 nM) was -0.0465 ± 0.018 and the “level (log10)” value ([13]; 20000 nM) was -0.035 ± 0.016. The “level (log10)” value ([13]; 60000 nM) was -0.0535 ± 0.03, the “level (log10)” value (Heptafluorobutyl iodide; 6700 nM) was 0.0005 ± 0.0035 and the “level (log10)” value (Heptafluorobutyl iodide; 20000 nM) was -0.0185 ± 0.016. For the same test system, the “level (log10)” value (Heptafluorobutyl iodide; 60000 nM) was -0.008 ± 0.0071, the “level (log10)” value [14] was 0.014 ± 0.0028 and the “level (log10)” value (Octafluoroadipamide; 6700 nM) was -0.0155 ± 0.012. The “level (log10)” value (Octafluoroadipamide; 20000 nM) was -0.0145 ± 0.025, the “level (log10)” value (Octafluoroadipamide; 60000 nM) was 0.004 ± 0.02 and the “level (log10)” value ([15]; 6700 nM) was -0.008 ± 0.03. For the same test system, the “level (log10)” value ([15]; 20000 nM) was -0.0005 ± 0.005 and the “level (log10)” value ([15]; 60000 nM) was 0 ± 0.0042.
For KF3CT:SRB, the “level (log10)” value (Nonafluoropentanamide; 6700 nM) was -0.001, the “level (log10)” value (Nonafluoropentanamide; 20000 nM) was -0.004 ± 0.0071 and the “level (log10)” value (Nonafluoropentanamide; 60000 nM) was 0.0085 ± 0.015. The “level (log10)” value ([1]; 6700 nM) was 0 ± 0.0099, the “level (log10)” value ([1]; 20000 nM) was -0.008 ± 0.0028 and the “level (log10)” value ([1]; 60000 nM) was -0.014 ± 0.0042. For the same test system, the “level (log10)” value ([2]; 6700 nM) was 0.0025 ± 0.0021, the “level (log10)” value ([2]; 20000 nM) was 0.0015 ± 0.005 and the “level (log10)” value ([2]; 60000 nM) was 0.0045 ± 0.00071. The “level (log10)” value ([3]; 6700 nM) was -0.005, the “level (log10)” value ([3]; 20000 nM) was -0.009 ± 0.0014 and the “level (log10)” value ([3]; 60000 nM) was 0.002 ± 0.013. For the same test system, the “level (log10)” value ([4]; 6700 nM) was -0.006 ± 0.0028, the “level (log10)” value ([4]; 20000 nM) was -0.0005 ± 0.0064 and the “level (log10)” value ([4]; 60000 nM) was -0.002 ± 0.013. The “level (log10)” value ([5]; 1500 nM) was 0.006 ± 0.011, the “level (log10)” value ([5]; 4400 nM) was 0 ± 0.0042 and the “level (log10)” value ([5]; 13000 nM) was -0.003 ± 0.0028. For the same test system, the “level (log10)” value ([5]; 40000 nM) was 0.0095 ± 0.016, the “level (log10)” value (Hexafluoroamylene glycol; 6700 nM) was -0.0045 ± 0.00071 and the “level (log10)” value (Hexafluoroamylene glycol; 20000 nM) was -0.005 ± 0.0057. The “level (log10)” value (Hexafluoroamylene glycol; 60000 nM) was 0.0025 ± 0.0078, the “level (log10)” value ([6]; 6700 nM) was 0.0015 ± 0.0064 and the “level (log10)” value ([6]; 20000 nM) was 0.005 ± 0.0057. The “level (log10)” value ([7]; 6700 nM) was -0.01 ± 0.017, the “level (log10)” value ([7]; 20000 nM) was -0.012 ± 0.0014 and the “level (log10)” value ([8]; 6700 nM) was -0.001 ± 0.0085. The “level (log10)” value ([8]; 20000 nM) was 0.001 ± 0.0028, the “level (log10)” value ([8]; 60000 nM) was -0.001 ± 0.0057 and the “level (log10)” value ([9]; 6700 nM) was 0.005 ± 0.013. The “level (log10)” value ([9]; 20000 nM) was 0.0125 ± 0.0078, the “level (log10)” value ([10]; 6700 nM) was -0.004 and the “level (log10)” value ([10]; 20000 nM) was 0.0005 ± 0.0035. The “level (log10)” value ([10]; 60000 nM) was 0.006 ± 0.016, the “level (log10)” value ([11]; 6700 nM) was -0.0075 ± 0.0021 and the “level (log10)” value ([11]; 20000 nM) was -0.008. For the same test system, the “level (log10)” value ([11]; 60000 nM) was 0 ± 0.013, the “level (log10)” value ([12]; 6700 nM) was -0.0095 ± 0.011 and the “level (log10)” value ([12]; 20000 nM) was -0.0315 ± 0.0078. The “level (log10)” value ([12]; 60000 nM) was -0.026 ± 0.0028, the “level (log10)” value ([13]; 6700 nM) was -0.005 ± 0.0085 and the “level (log10)” value ([13]; 20000 nM) was 0. For the same test system, the “level (log10)” value ([13]; 60000 nM) was -0.001 ± 0.0057, the “level (log10)” value (Heptafluorobutyl iodide; 6700 nM) was -0.002 ± 0.0028 and the “level (log10)” value (Heptafluorobutyl iodide; 20000 nM) was 0 ± 0.0042. For the same test system, the “level (log10)” value (Heptafluorobutyl iodide; 60000 nM) was 0.001 ± 0.016, the “level (log10)” value [14] was -0.01 ± 0.0085 and the “level (log10)” value (Octafluoroadipamide; 6700 nM) was 0.0015 ± 0.00071. For the same test system, the “level (log10)” value (Octafluoroadipamide; 20000 nM) was -0.004 ± 0.011, the “level (log10)” value (Octafluoroadipamide; 60000 nM) was 0.0125 ± 0.005 and the “level (log10)” value ([15]; 6700 nM) was -0.007 ± 0.0057. For the same test system, the “level (log10)” value ([15]; 20000 nM) was -0.007 ± 0.0014 and the “level (log10)” value ([15]; 60000 nM) was 0.0095 ± 0.011.
